Results: publication PMC7150891, “Mertansine Inhibits mRNA Expression and Enzyme Activities of Cytochrome P450s and Uridine 5′-Diphospho-Glucuronosyltransferases in Human Hepatocytes and Liver Microsomes” (Pharmaceutics, 2020)
Where two headings read alike, the source gives them in different places.

Tests used:
[1] = system: CYP3A4
Method: Samples were incubated for 48 h at 37 °C in 5% CO2, and the medium was exchanged with 250 μL of fresh medium containing drugs or the vehicle every 24 h.
The effects of mertansine on CYP1A2, CYP2B6, and CYP3A4 activities were evaluated. […] Mixtures were vortexed for 2 min and then centrifuged at 13,000 g for 4 min at 4 °C. The supernatant (40 µL) was diluted with 60 µL of deionized water and then mixed for 2 min by vortexing. An aliquot (5 µL) was analyzed using LC-MS/MS [37], and CYP1A2, CYP2B6, and CYP3A4 enzyme activities were expressed as formation rates (pmol/million cells/min).
The percentage changes in enzymatic activities were calculated as (CYP activity with test compound treatment/CYP activity with vehicle control treatment) × 100. The IC50 (the concentration of the inhibitor needed for half-maximal inhibition) values were calculated using SigmaPlot ver. […] Ki (the inhibition constant) and the inhibition mode of UGT1A1, UGT1A3, and UGT1A4 activities were determined using Enzyme Kinetics ver. 1.1 (Systat Software, Inc.).

[2] = system: UGT1A1 mRNA; experiment: UGT1A1 mRNA level in human hepatocytes after 48 h treatment (RT-PCR); settings: human, IC50, suppression of UGT1A1 mRNA expression, 1.25–2500 nM
[3] = system: UGT1A4 mRNA; experiment: UGT1A4 mRNA level in human hepatocytes after 48 h treatment (RT-PCR); settings: for IC50: read-out: IC50, suppression of UGT1A4 mRNA expression, 1.25–2500 nM
[4] = system: CYP2C9 mRNA; experiment: CYP2C9 mRNA level in human hepatocytes after 48 h treatment (RT-PCR); settings: plated cryopreserved human hepatocytes, IC50, suppression of CYP2C9 mRNA expression, 1.25–2500 nM
[5] = system: CYP3A4 mRNA; experiment: in vitro; settings: human, hepatocytes, IC50, suppression of CYP3A4 mRNA expression, 1.25–2500 nM
[6] = Mean ± SD of three human hepatocyte lots, 48 h
[7] = human hepatocytes Lot 319, 48 h
[8] = human hepatocytes Lot 321, 48 h
[9] = human hepatocytes Lot 361, 48 h

## COc1cc2cc(c1Cl)N(C)C(=O)CC(OC(=O)C(C)N(C)C(=O)CCS)C1(C)OC1C(C)C1CC(O)(NC(=O)O1)C(OC)C=CC=C(C)C2 (stereo not drawn) [mertansine, Mertansine]
[1]; human, hepatocytes
  Mean decrease of CYP3A4-mediated midazolam 1′-hydroxylase activity: 39.7%
[1]; mertansine 48 h, three human hepatocytes
  Decrease of CYP3A4-mediated midazolam 1′-hydroxylase activity compared to vehicle: 30.8–62.7%
[2]; [6]
  IC50 at 48 h: 857 ± 782 nM
[2]; [7]
  IC50 at 48 h: 784 nM
[2]; [8]
  IC50 at 48 h: 113 nM
[2]; [9]
  IC50 at 48 h: 1670 nM
[3]; human
  IC50 at 48 h: > 2500 nM
[3]; [7]
  IC50: > 2500 nM
[3]; [8]
  IC50: > 2500 nM
[3]; [9]
  IC50: > 2500 nM
[4]; [6]
  IC50 at 48 h: 578 ± 452 nM
[4]; [7]
  IC50 at 48 h: 788 nM
[4]; [8]
  IC50 at 48 h: 888 nM
[4]; [9]
  IC50 at 48 h: 59.6 nM
[5]; [6]
  IC50: 161 ± 167 nM
[5]; [7]
  IC50: 344 nM
[5]; [8]
  IC50: 120 nM
[5]; [9]
  IC50: 16.8 nM
